Measurements reported in patent US12606552B2, “Bifunctional compound, preparation method therefor, and use thereof” (SUZHOU KINTOR PHARMACEUTICALS, INC., priority 2020, dated 2026).

Columns and labels:
[1] = tested on: flank sebaceous glands of golden hamster; experiment: In vivo efficacy on acne in female golden hamsters (growth of sebaceous plaques induced by testosterone propionate); conditions: for The inhibition rate of the growth of sebaceous plaques (%): 400 μg (1.6%) + testosterone propionate 12 μg, skin smear once a day, 21 days
Text: Activity Assay Example 7: In Vivo Efficacy of Compounds on Acne in Female Golden Hamsters
1. Test object: The flank sebaceous glands of golden hamster are androgen-dependent organs, and testosterone propionate (male hormone) promotes the enlargement of sebaceous glands. This experiment is mainly to study the inhibitory effect of CB-03-01 (positive drug), Flutamide (positive drug) and the compound on sebaceous gland enlargement in female golden hamster acne model (androgen dependence), to further observe the in vivo drug efficacy of the compound, to provide the basis for clinical trials of androgen-induced acne symptoms.
Androgen (Testosterone Propionate-TP); CB-03-01 (Clascoterone, CAS No. 19608-29-8); □ Flutamide (Flutamide, CAS No. 13311-84-7); compound A46 of the present invention.
2.2 Experimental Animals, See Table 4 for Details
2.3 Administration Vehicle: Acetone. 3. Experimental Design
In this experiment, from 72 female golden hamsters, according to the size and body weight of sebaceous glands, golden hamsters were evenly distributed to each group, 6 mice per group, a total of 7 groups, and they were administered continuously for 21 days.
According to the protocol in the table, […] of drug was administered each time, it was evenly smeared on the sebaceous glands, and administered once a day.
Animal grouping and status observation: Before grouping, the body weight was weighed, and the sebaceous glands on both sides were shaved for the observation of the size of sebaceous glands. Animals were observed twice a day in the morning and afternoon during the administration period. On the 21st day after administration, the size of sebaceous glands and the body weight of animals were observed and recorded.
The size of the sebaceous glands is expressed by the area, and the vernier caliper recorded its long side (a) and short side (b), and the area of the sebaceous glands (S) is obtained from the formula for calculating the area of a rectangle. In model group and administration group, ΔS=S−S(vehicle). Growth inhibition rate (%)=(ΔS(acetone testosterone group)−ΔS (administration group))/ΔS(acetone testosterone group)*100%.

[2] = tested on: LNCaP (human prostate cancer); experiment: Hormone-dependent prostate cancer long-term efficacy test (LNCaP xenograft, tumor growth inhibition); type: in vivo, SCID nude mice
Description: Activity Assay Example 5: Hormone-Dependent Prostate Cancer Long-Term Efficacy Test
1. Tumor Model Establishment
1.5*10^7 LNCaP (human prostate cancer) was purchased from the Chinese Academy of Sciences Cell Bank and cultured in RPMI-1640 medium containing 10% fetal bovine serum. The cells were grown to 80-90% confluence and passaged in about 4-5 days, and the cells were grown to a sufficient amount and then inoculated into nude mice.
18-20 g SCID nude mice aged 6-7 weeks old were purchased from Beijing Vital River Co., Ltd. Mice were kept in SPF animal room, in which the temperature was 20-25° C., and the humidity was 40%-70%, and light/dark was 12 hours a day respectively. Animals were kept in separate cages, 5 per cage, with free access to food and water, in which the feed was sterilized by irradiation, and the water was autoclaved. The mice were grouped for experiment when raised to 10˜11 weeks old. LNCaP tumor cells were directly inoculated into the right back of nude mice.
3. Grouping and Administration Schedule Design
When the average tumor volume reached 200-300 mm^3, the tumors with good shape were selected for random number grouping according to the tumor volume, and the selected animals were marked and divided into 5 groups, 5 per group. Administration vehicle: 5% EtOH, 5% solutolHS15 in PBS. The corresponding dose of compound was administered by gavage.
(§1) Data are presented as mean±standard deviation (Mean±SD). One-way multi-level analysis of variance was used for statistics, and the comparison between each drug group and the model group was performed by Stundent's t-test or rank sum test, and the p value was calculated. p<0.05 means there is a significant difference between the two groups.

[3] = molecular target: T1, AR (Homo sapiens, UniProt P10275, T878A); experiment: Effects of compounds on AR expression in LNCaP cells (ELISA, DC50); type: cell-based; parameters: Measurement of the Effects of Drugs on the Expression of AR in Cells by ELISA Method; endogenous in cells; host or cells: LNCaP; conditions: 24 hours of drug treatment, AR by ELISA
T1 sequence (P10275 1-920 T878A): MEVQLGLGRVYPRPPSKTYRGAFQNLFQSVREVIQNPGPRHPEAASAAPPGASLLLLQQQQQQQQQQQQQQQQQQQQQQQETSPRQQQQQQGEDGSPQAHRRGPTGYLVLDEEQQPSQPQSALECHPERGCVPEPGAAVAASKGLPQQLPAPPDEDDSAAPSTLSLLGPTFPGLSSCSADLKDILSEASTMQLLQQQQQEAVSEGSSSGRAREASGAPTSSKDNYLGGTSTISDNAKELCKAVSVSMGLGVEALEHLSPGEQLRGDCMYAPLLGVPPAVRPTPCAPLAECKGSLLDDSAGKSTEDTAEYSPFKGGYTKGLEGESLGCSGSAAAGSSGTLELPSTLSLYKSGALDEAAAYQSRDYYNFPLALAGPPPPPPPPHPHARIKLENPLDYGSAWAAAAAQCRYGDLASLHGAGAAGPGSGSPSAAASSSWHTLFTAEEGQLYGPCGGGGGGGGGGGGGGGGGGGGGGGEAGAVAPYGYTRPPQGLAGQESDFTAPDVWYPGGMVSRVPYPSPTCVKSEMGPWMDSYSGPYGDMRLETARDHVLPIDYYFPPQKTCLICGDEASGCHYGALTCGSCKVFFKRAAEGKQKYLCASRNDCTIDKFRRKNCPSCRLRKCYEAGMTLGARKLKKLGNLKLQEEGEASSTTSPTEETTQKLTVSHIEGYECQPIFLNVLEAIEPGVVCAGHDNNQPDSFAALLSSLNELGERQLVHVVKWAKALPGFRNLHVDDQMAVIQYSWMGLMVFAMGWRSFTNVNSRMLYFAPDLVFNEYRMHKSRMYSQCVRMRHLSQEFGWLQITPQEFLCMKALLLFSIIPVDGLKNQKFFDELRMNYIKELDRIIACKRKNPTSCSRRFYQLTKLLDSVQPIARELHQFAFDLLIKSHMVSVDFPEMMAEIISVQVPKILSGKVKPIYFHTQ
Procedure, shortened: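 LNCaP cells at about 15,000/well were treated for 24 h with compound at 0.0001–2 μmol/L final. AR in cell lysates was measured by ELISA (OD450). Inhibition was relative to DMSO control after blank subtraction, and DC50 was calculated from it.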

[4] = tested on: androgenetic alopecia model in C57BL/6J mice; experiment: Hair regeneration effects on androgenic alopecia C57 mouse model (DHT-induced); type: in vivo, C57BL/6N mice; conditions: AVER n = 6, score 0-5
Text: Activity Assay Example 8: Hair Regeneration Effects of Compounds on Androgenic Alopecia C57 Mouse Model
The purpose of this study was to compare the effect of the compounds prepared by the present invention as AR protein degraders on hair regrowth in an androgenetic alopecia model in C57BL/6J mice by transdermal application route of administration, and to provide data to support subsequent clinical trials.
2. Experimental Principle
Name of test compound I: dihydrotestosterone DHT; name of test compound II: compound A46 of the present invention; name of test compound III: minoxidil.
4. Experimental animals: strain: C57BL/6N mice; age: 6-7 weeks; gender: male; number of animals: 70 (10 for later use); rearing environment: specific pathogen-free (SPF).
70 mice were deeply anesthetized, and the hair on the back of the mice was removed with an animal shaver, then the depilatory cream (Veet https://item.jd.com/6291245.html) was smeared evenly on the surface of the mice skin, and left 7-10 minutes. Then the hair was gently scraped off with a hair removal scraper against the direction of the hair, and finally the residual hair removal cream on the skin surface was fully washed with water to avoid burning the mice skin.
This experiment was divided into 6 groups, and the DHT administration started on the day of hair removal, A46 is administered on day 2 after hair removal and is counted as day 1 (the day of hair removal is counted as day 0).
5.3 Test Compound Preparation Method
5.4 Observation and Measurement Indicators • 1) Body weight/g: From the first day of administration, body weight was weighed and recorded twice a week. • 2) Hair regeneration (anagen) score (0 points: no darkening of skin color in all areas; 1 point: darkening of gray skin color areas; 2 points: visible short hair; 3 points: thin hair; 4 points: thick hair; 5 points: full hair growth).
All mice were photographed on day 1 after hair removal, and then photographed and scored daily from day 4 until the end of the experiment. • 3) At the end of the experiment, skin and blood collection operations were performed as needed. 5.5 Criteria for Drug Withdrawal and Experiment Termination
as §1, with “average±standard error (AVE±SEM).” for “mean±standard deviation (Mean±SD).”, “statistics. The” for “statistics, and the”, “two groups, p<0.01 means there is a extremely significant difference between the two” for “two”

Q: For CCC(=O)O[C@]1(C(=O)CO)CC[C@H]2[C@@H]3CCC4=CC(=O)CC[C@]4(C)[C@H]3CC[C@@]21C [CB-03-01, Clascoterone, reference compound], which “The inhibition rate of the growth of sebaceous plaques (%)” value [1] is on record?
A: 69.53%

Q: How did the “Tumor growth inhibition rate” value ([2]; 10 mpk by gavage, 3 days) turn out when Cc1ncsc1-c1ccc(CNC(=O)[C@@H]2C[C@@H](O)CN2C(=O)[C@@H](NC(=O)COCCCCOc2ccc(-c3ncc(N4C(=S)N(c5ccc(C#N)c(C(F)(F)F)c5F)C(=O)C4(C)C)cc3F)c(C(F)(F)F)c2)C(C)(C)C)cc1 [Compound A88] was run?
A: 19.81%

Q: And the “Tumor growth inhibition rate” value ([2]; 10 mpk by gavage, 7 days)?
A: 38.44%

Q: And the “Tumor growth inhibition rate” value ([2]; 10 mpk by gavage, 10 days)?
A: 31.33%

Q: What about the “Tumor growth inhibition rate” value ([2]; 10 mpk by gavage, 14 days) of the same molecule?
A: 13.15%

Q: What about the “Tumor growth inhibition rate” value ([2]; 25 mpk by gavage, 3 days) of the same molecule?
A: 14.98%

Q: And the “Tumor growth inhibition rate” value ([2]; 25 mpk by gavage, 7 days)?
A: 36.36%

Q: And the “Tumor growth inhibition rate” value ([2]; 25 mpk by gavage, 10 days)?
A: 37.51%

Q: And the “Tumor growth inhibition rate” value ([2]; 25 mpk by gavage, 14 days)?
A: 24.68%

Q: And the “Tumor growth inhibition rate” value ([2]; 50 mpk by gavage, 3 days)?
A: 22.30%

Q: And the “Tumor growth inhibition rate” value ([2]; 50 mpk by gavage, 7 days)?
A: 51.85%

Q: And the “Tumor growth inhibition rate” value ([2]; 50 mpk by gavage, 10 days)?
A: 42.62%

Q: What about the “Tumor growth inhibition rate” value ([2]; 50 mpk by gavage, 14 days) of the same molecule?
A: 24.47%

Q: And the DC50 [3]?
A: 55 nM

Q: What does the source list for C[C@]12CCC(=O)C[C@@H]1CC[C@@H]1[C@@H]2CC[C@]2(C)[C@@H](O)CC[C@@H]12 [DHT, dihydrotestosterone, reference compound]?
A: Hair regeneration score ([4]; DHT 30 mpk subcutaneous alone (model), 0 day): 0.00; Hair regeneration score ([4]; DHT 30 mpk subcutaneous alone (model), 3 days): 0.00; Hair regeneration score ([4]; DHT 30 mpk subcutaneous alone (model), 5 days): 0.00; Hair regeneration score ([4]; DHT 30 mpk subcutaneous alone (model), 7 days): 0.00; Hair regeneration score ([4]; DHT 30 mpk subcutaneous alone (model), 10 days): 0.00; Hair regeneration score ([4]; DHT 30 mpk subcutaneous alone (model), 12 days): 0.00; Hair regeneration score ([4]; DHT 30 mpk subcutaneous alone (model), 14 days): 0.17; Hair regeneration score ([4]; DHT 30 mpk subcutaneous alone (model), 17 days): 0.5

Q: Which “The inhibition rate of the growth of sebaceous plaques (%)” value [1] does the source give for CC(C)C(=O)Nc1ccc([N+](=O)[O-])c(C(F)(F)F)c1 [Flutamide, reference compound] here?
A: 40.74%

Q: With Nc1cc(N2CCCCC2)nc(N)[n+]1[O-] [minoxidil, reference compound] as the molecule, how does the Hair regeneration score ([4]; 5% skin smear BID + DHT 30 mpk, 0 day) read?
A: 0.00

Q: And the Hair regeneration score ([4]; 5% skin smear BID + DHT 30 mpk, 3 days)?
A: 0.00

Q: And the Hair regeneration score ([4]; 5% skin smear BID + DHT 30 mpk, 5 days)?
A: 0.00

Q: What about the Hair regeneration score ([4]; 5% skin smear BID + DHT 30 mpk, 7 days) of the same molecule?
A: 0.00

Q: What about the Hair regeneration score ([4]; 5% skin smear BID + DHT 30 mpk, 10 days) of the same molecule?
A: 0.33

Q: And the Hair regeneration score ([4]; 5% skin smear BID + DHT 30 mpk, 12 days)?
A: 0.67

Q: And the Hair regeneration score ([4]; 5% skin smear BID + DHT 30 mpk, 14 days)?
A: 1.67

Q: And the Hair regeneration score ([4]; 5% skin smear BID + DHT 30 mpk, 17 days)?
A: 2.33

Q: Which “area of sebaceous plaques” value ([1]; model group, 12 μg TP skin smear, after 21 days) does the source give for CCC(=O)O[C@H]1CC[C@H]2[C@@H]3CCC4=CC(=O)CC[C@]4(C)[C@H]3CC[C@]12C [testosterone propionate, reference compound] here?
A: 40-50 mm^2
